Laboratory results reported in the supplement of paper PMC4862054.

Assays:
[1] = tested on: SK-BR-3; test: drug sensitivity score (DSS), CellTiter-Glo (DSS (AUC-based score)); higher = stronger drug effect (viability inhibition or cytotoxicity); extreme values may be limits of the assay; details: incubation time: 72 h
Method in brief: (§1)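 Plates with 384 wells held compound at 5 concentrations in 10-fold steps over a 10,000-fold range specific to each compound. Breast cancer cell lines were added in 20 µl suspension and incubated 72 h, then read for CellTox Green and CellTiter-Glo signals, with each plate normalised to 0.1 % DMSO and a positive kill control. The drug sensitivity score is based on the area under the fitted dose-response curve.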

[2] = tested on: MDA-MB-468; test: as above; details: incubation time: 72 h
Method in brief: as §1

[3] = tested on: HCC1143; test: as above; details: incubation time: 72 h
Method in brief: as §1

[4] = tested on: MDA-MB-453; test: as above; details: incubation time: 72 h
Method in brief: as §1

[5] = tested on: HDQ-P1; test: as above; details: incubation time: 72 h
Method in brief: as §1

[6] = tested on: CAL-51; test: as above; details: incubation time: 72 h
Method in brief: as §1

[7] = tested on: DU-4475; test: as above; details: incubation time: 72 h
Method in brief: as §1

[8] = tested on: BT-474; test: as above; details: incubation time: 72 h
Method in brief: as §1

[9] = tested on: CAL-120; test: as above; details: incubation time: 72 h
Method in brief: as §1

[10] = tested on: CAL-148; test: as above; details: incubation time: 72 h
Method in brief: as §1

[11] = tested on: HCC1599; test: as above; details: incubation time: 72 h
Method in brief: as §1

[12] = tested on: CAL-85-1; test: as above; details: incubation time: 72 h
Method in brief: as §1

[13] = tested on: Hs578T; test: as above; details: incubation time: 72 h
Method in brief: as §1

[14] = tested on: MDA-MB-231; test: as above; details: incubation time: 72 h
Method in brief: as §1

[15] = tested on: CAL-51; details: 72 h
Method in brief: (§2)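 Seeding of breast cancer cell lines (20 µl suspension) was done into 384-well plates pre-loaded with compound at 5 concentrations, 10-fold apart, covering a compound-specific 10,000-fold range. The plates were incubated for 72 h, read for CellTox Green fluorescence (485/520 nm), and then read for CellTiter-Glo luminescence after 10 min at room temperature. Every plate was normalised to 0.1 % DMSO and a positive kill control. Curve fitting gave the EC50, censored at the top concentration.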

[16] = tested on: MDA-MB-453; test: normalised viability (% of control), CellTiter-Blue; higher = more viable cells (about 100 = DMSO control); details: incubation time: 72 h
Protocol: (§3)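 DSRT, CellTiter-Blue viability, 72 h incubation. Signal is normalised to DMSO and benzethonium chloride controls. Value is the normalised response at dose 7.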

[17] = tested on: HDQ-P1; test: as above; details: incubation time: 72 h
Protocol: as §3

[18] = tested on: CAL-51; test: as above; details: incubation time: 72 h
Protocol: as §3

[19] = tested on: DU-4475; test: as above; details: incubation time: 72 h
Protocol: as §3

[20] = tested on: CAL-148; test: as above; details: incubation time: 72 h
Protocol: as §3

[21] = tested on: CAL-85-1; test: as above; details: incubation time: 72 h
Protocol: as §3

[22] = tested on: SK-BR-3; details: 72 h
Method in brief: as §2

[23] = tested on: MDA-MB-436; details: 72 h
Method in brief: as §2

[24] = tested on: HCC1937; details: 72 h
Method in brief: as §2

[25] = tested on: MDA-MB-468; details: 72 h
Method in brief: as §2

[26] = tested on: MDA-MB-453; details: 72 h
Method in brief: as §2

[27] = tested on: BT-474; details: 72 h
Method in brief: as §2

[28] = tested on: CAL-120; details: 72 h
Method in brief: as §2

[29] = tested on: MCF-10A; details: 72 h
Method in brief: as §2

[30] = tested on: CAL-85-1; details: 72 h
Method in brief: as §2

[31] = tested on: Hs578T; details: 72 h
Method in brief: as §2

[32] = tested on: BT-549; details: 72 h
Method in brief: as §2

[33] = tested on: MDA-MB-231; details: 72 h
Method in brief: as §2

Row | Structure (SMILES) | drug sensitivity score [1] | drug sensitivity score [2] | drug sensitivity score [3] | drug sensitivity score [4] | drug sensitivity score [5] | drug sensitivity score [6] | drug sensitivity score [7] | drug sensitivity score [8] | drug sensitivity score [9] | drug sensitivity score [10] | drug sensitivity score [11] | drug sensitivity score [12] | drug sensitivity score [13] | drug sensitivity score [14] | EC50, CellTiter-Glo [15] | normalised viability ([16]; 1000 nM) | normalised viability ([17]; 1000 nM) | normalised viability ([18]; 1000 nM) | normalised viability ([19]; 1000 nM) | normalised viability ([20]; 1000 nM) | also measured
1 | C[C@]12CC[C@H](O)CC1=CC[C@@H]1[C@@H]2CC[C@]2(C)C(c3cccnc3)=CC[C@@H]12 [Abiraterone] | 0 | 0 | 0 | 0 | 0 | 3.91 | 0 | 0 | 0 | 0 | 0 | 0 | 0 | 0 | 0.0433 µM |  |  |  |  |  | normalised viability ([16]; 500 nM): 92.3%; normalised viability ([17]; 500 nM): 112%; normalised viability ([18]; 500 nM): 103%; normalised viability ([19]; 500 nM): 94.2%; normalised viability ([20]; 500 nM): 94.7%; normalised viability ([21]; 500 nM): 77.2%
2 | CNNCc1ccc(C(=O)NC(C)C)cc1 [Procarbazine] | 0 | 0 | 0 | 0 | 0 | 0 | 0 | 0 | 0 | 0 | 0 | 0 | 0 | 0 |  | 113% | 95.7% | 100% | 105% | 87.9% | normalised viability ([21]; 1000 nM): 89.2%
3 | Cn1cncc1[C@@](N)(c1ccc(Cl)cc1)c1ccc2c(c1)c(-c1cccc(Cl)c1)cc(=O)n2C [Tipifarnib] | 11.9 | 7.6 | 0 | 10.3 | 7.3 | 11.4 | 8.37 | 4.08 | 3.76 | 7.28 | 1.29 | 1.05 | 4.5 | 0 | 0.0825 µM | 49.1% | 66.6% | 59.9% | 40.6% | 42.9% | EC50, CellTiter-Glo [22]: 0.414 µM; EC50, CellTiter-Glo [23]: 0.607 µM; EC50, CellTiter-Glo [24]: 0.126 µM; EC50, CellTiter-Glo [25]: 3.33 µM; EC50, CellTiter-Glo [26]: 0.00961 µM; EC50, CellTiter-Glo [27]: 6.9 µM; EC50, CellTiter-Glo [28]: 1.37 µM; EC50, CellTiter-Glo [29]: 0.237 µM; EC50, CellTiter-Glo [30]: 9.99 µM; EC50, CellTiter-Glo [31]: 7.87 µM; EC50, CellTiter-Glo [32]: 5.42 µM; normalised viability ([21]; 1000 nM): 62.8%
4 | COc1ccccc1S(=O)(=O)Nc1ccc2c(c1)CN(C)C(=O)N2 [PFI-1] | 0 | 0 | 0 | 4.63 | 0 | 3.76 | 0.973 | 0 | 2.01 | 0 | 0 | 3.01 | 4.98 | 1.83 | 6.31 µM |  |  |  |  |  | EC50, CellTiter-Glo [26]: 1.98 µM; EC50, CellTiter-Glo [28]: 2.57 µM; EC50, CellTiter-Glo [29]: 4.16 µM; EC50, CellTiter-Glo [30]: 8.46 µM; EC50, CellTiter-Glo [31]: 1.81 µM; EC50, CellTiter-Glo [32]: 1.35 µM; EC50, CellTiter-Glo [33]: 1.61 µM
5 | CC(C)(C#N)c1cc(Cn2cncn2)cc(C(C)(C)C#N)c1 [Anastrozole] | 0 | 0 | 0 | 0 | 0 | 0 | 0 | 0 | 0 | 0 | 0 | 0 | 0 | 0 |  | 105% | 84.2% | 93.9% | 91.3% | 90.4% | normalised viability ([21]; 1000 nM): 90.8%
6 | CC(C)c1c(C(=O)Nc2ccccc2)c(-c2ccccc2)c(-c2ccc(F)cc2)n1CC[C@@H](O)C[C@@H](O)CC(=O)O [Atorvastatin] | 0 | 4.08 | 1.92 | 0.00416 | 5.79 | 6.03 | 0 | 8.43 | 4.42 | 0 | 0 | 3.85 | 1.59 | 10.1 | 2.21 µM |  |  |  |  |  | EC50, CellTiter-Glo [24]: 2.37 µM; EC50, CellTiter-Glo [25]: 4.39 µM; EC50, CellTiter-Glo [26]: > 10 µM; EC50, CellTiter-Glo [27]: 1.75 µM; EC50, CellTiter-Glo [28]: 1.84 µM; EC50, CellTiter-Glo [29]: 2.28 µM; EC50, CellTiter-Glo [30]: 1.9 µM; EC50, CellTiter-Glo [31]: 7.69 µM; EC50, CellTiter-Glo [33]: 1.27 µM
7 | Cn1c(=O)n(-c2ccc(C(C)(C)C#N)cc2)c2c3cc(-c4cnc5ccccc5c4)ccc3ncc21 [NVP-BEZ235] |  |  |  |  |  |  |  |  |  |  |  |  |  |  |  |  |  |  |  |  | normalised viability ([16]; 100 nM): 16.8%; normalised viability ([17]; 100 nM): 38.3%; normalised viability ([18]; 100 nM): 22.3%; normalised viability ([19]; 100 nM): 37.2%; normalised viability ([20]; 100 nM): 16.1%; normalised viability ([21]; 100 nM): 31.4%
